Consider 16 molecules from ChEMBL document CHEMBL3098126, “Identification through structure-based methods of a bacterial NAD(+)-dependent DNA ligase inhibitor that avoids known resistance mutations” (Bioorg Med Chem Lett, 2014).

Broadly, the pIC50 is the IC50 on a negative log10 scale, so that one unit is a factor of ten. Higher therefore signals a small IC50. As usually defined, the MIC is the smallest concentration in the dilution series that meets the test's criterion for growth inhibition. Low values mean a more susceptible organism, high ones a less susceptible organism.

A short description of assay [1]: Inhibition of wild type Streptococcus pneumoniae LigA.
Assay [2] can be described thus: Inhibition of Enterococcus faecalis LigA.
The next assay has as its target DNA ligase (Staphylococcus aureus, UniProt Q9AIU7). The assay is described as follows: Inhibition of Staphylococcus aureus LigA.
Assay [3] is described as follows: Inhibition of Haemophilus influenzae LigA.
Assay [4] deals with Streptococcus pneumoniae. Put plainly: Antibacterial activity against Streptococcus pneumoniae ARC548. Format: functional.
A short description of assay [5]: Inhibition of Streptococcus pneumoniae LigA L75F mutant.
In assay [6] the test system is Streptococcus pneumoniae. The assay is described as follows: Selectivity ratio of IC50 for Streptococcus pneumoniae LigA L75F mutant to IC50 for wild type Streptococcus pneumoniae LigA.

pIC50: −log10 of the molar value. Converted amounts (≈) assume the structure as drawn.

DNA ligase, sequence (Q9AIU7 whole entry): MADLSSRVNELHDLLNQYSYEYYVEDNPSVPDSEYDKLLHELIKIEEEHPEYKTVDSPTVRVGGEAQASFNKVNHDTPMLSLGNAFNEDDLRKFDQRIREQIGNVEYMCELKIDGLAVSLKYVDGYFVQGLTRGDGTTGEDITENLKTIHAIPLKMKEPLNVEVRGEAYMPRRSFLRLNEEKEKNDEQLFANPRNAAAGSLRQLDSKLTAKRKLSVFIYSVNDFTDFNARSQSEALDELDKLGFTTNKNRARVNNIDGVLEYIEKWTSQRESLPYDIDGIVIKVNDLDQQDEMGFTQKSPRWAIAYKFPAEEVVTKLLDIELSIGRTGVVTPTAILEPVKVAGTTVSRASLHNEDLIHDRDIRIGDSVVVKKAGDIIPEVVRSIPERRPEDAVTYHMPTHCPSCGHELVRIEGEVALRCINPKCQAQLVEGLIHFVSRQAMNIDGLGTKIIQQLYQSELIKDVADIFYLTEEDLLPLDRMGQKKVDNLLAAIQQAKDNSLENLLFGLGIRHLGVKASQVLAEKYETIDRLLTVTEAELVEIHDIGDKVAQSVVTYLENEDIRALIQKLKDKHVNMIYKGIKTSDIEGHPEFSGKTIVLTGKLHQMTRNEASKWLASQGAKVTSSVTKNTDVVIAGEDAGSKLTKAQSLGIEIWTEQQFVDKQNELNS

Consider `NC(=O)c1cnc(N)c2ccsc12`, for which the pIC50 in assay [1] is 4.60; in assay [2] it was under 3.70; against DNA ligase it was under 3.70; in assay [3] it was under 3.70.
For `NC(=O)c1cnc(N)c2cc(Br)sc12`, the minimum inhibitory concentration (MIC) against Streptococcus pneumoniae [4] was over 64 µg/mL. Besides, the negative-log IC50 (pIC50) was 4.32 in assay [5]; 4.68 in assay [1]; 4.11 in assay [2]; 4.32 against DNA ligase; 3.80 in assay [3]. The Ratio IC50 in the assay on Streptococcus pneumoniae [6] is 2.
Take `NC(=O)c1cnc(NCCO)c2cc(Br)sc12`: the pIC50 (in assay [1]; in assay [2]; at DNA ligase; in assay [3]) was under 3.70 in each case.
In the case of `CCNC(=O)c1cc2c(N)ncc(C(N)=O)c2s1`, the negative-log IC50 (pIC50) was 3.85 in assay [1], under 3.70 in assay [2], 4.12 against DNA ligase and under 3.70 in assay [3].
Consider `Cc1csc2c(C(N)=O)cnc(N)c12`, for which the pIC50 in assay [1] is under 3.85; in assay [2], under 3.70; on DNA ligase, under 3.70; in assay [3] it was under 3.70.
For the molecule `NC(=O)c1cnc(N)c2c(Br)csc12`, the pIC50 in assay [1] is 4.44; in assay [2], 3.89; at DNA ligase, 4.41; in assay [3], under 3.70.
For `CCOC(=O)c1cc2c(N)ncc(C(N)=O)c2s1`, in that order: 5.03, 4.13, 5.05 and under 3.70.
Consider `NC(=O)c1cnc(N)c2c(-c3ccn[nH]3)csc12`, for which the pIC50 in assay [1] is 4.00; in assay [2], under 3.70; at DNA ligase, under 3.70; in assay [3], under 3.70.
In the case of `CCCNc1ncc(C(N)=O)c2sc(Br)cc12`, the pIC50 is 3.82 in assay [1], 3.89 in assay [2], 3.74 against DNA ligase and 3.70 in assay [3].
In the case of `Cc1c(Br)sc2c(C(N)=O)cnc(N)c12`, the pIC50 in assay [5] is 4.43; in assay [1] it was 5.51; in assay [2] it was 5.09; at DNA ligase, 5.15; in assay [3], under 3.70.
In the assay with Streptococcus pneumoniae [4], `Nc1nc(OC2CCCC2)nc2c1ncn2[C@@H]1O[C@H](CO)[C@@H](O)[C@H]1O` registered a minimal inhibitory concentration (MIC) of 8 µg/mL (≈ 22.8 µM). The pIC50 in assay [5] is 4.48; in assay [1], 6.68; against DNA ligase, 6.37; in assay [3] it was 6.29.
Regarding `NC(=O)c1cnc(N)c2cc(-c3ccn[nH]3)sc12`, the pIC50 was 4.54 in assay [1], 4.00 in assay [2], 4.44 at DNA ligase and under 3.70 in assay [3].
For `NC(=O)c1cnc(Nc2ccccc2)c2cc(Br)sc12`, in that order: under 3.70, 3.80, 3.82 and 3.80.
With `NC(=O)c1cc2c(N)ncc(C(N)=O)c2s1`, the pIC50 in assay [1] was 5.03; in assay [2], 4.47; on DNA ligase, 4.82; in assay [3] it was under 3.70.
For `Cc1cc2c(N)ncc(C(N)=O)c2s1`, the negative logarithm of the IC50 (pIC50) in assay [1] is 3.70; in assay [2] it was under 3.70; against DNA ligase, under 3.70; in assay [3], under 3.70.
On to `NC(=O)c1cnc(N)c2c(C(N)=O)csc12`, for which the negative-log IC50 (pIC50) in assay [1] was 4.28; in assay [2], under 3.70; against DNA ligase, 4.16; in assay [3], under 3.70.
